Reference: US20230126204A1, “[1,3]DIAZINO[5,4-d]PYRIMIDINES AS HER2 INHIBITORS” (Boehringer Ingelheim International GmbH, priority 2020, published 2023)

Legend:
Format in all cases: cell-based
[1] = tested on: Ba/F3 cells HER2 mutants (YVMA); experiment: Ba/F3 proliferation assay HER2 YVMA; details: Mus musculus, BaF3; 72 h, CellTiter-Glo
Method: (§1) Ba/F3 cell model generation and proliferation assays
(§2) Plasmids containing HER2 mutants and EGFR WT were obtained from GeneScript. To generate EGFR/HER2-dependent Ba/F3 models, Ba/F3 cells were transduced with retroviruses containing vectors that harbor EGFR WT, HER2 WT or HER2 mutants (YVMA). Platinum-E cells (Cell Biolabs) were used for retrovirus packaging. Retrovirus was added to Ba/F3 cells. To ensure infection, 4 μg/mL polybrene was added and cells were spinfected. Infection efficiency was confirmed by measuring GFP-positive cells using a cell analyzer. Cells with an infection efficiency of 10% to 20% were further cultivated and puromycin selection with 1 μg/mL was initiated. As a control, parental Ba/F3 cells were used to assess the selection status. Selection was considered successful when parental Ba/F3 cells cultures died. To evaluate the transforming potential of HER2 mutations, the growth medium was no longer supplemented with IL-3. Ba/F3 cells harboring the empty vector were used as a control. A switch from IL-3 to EGF was performed for Ba/F3 cells with the EGFR WT known for its dependency on EGF ligand. Approximately ten days before conducting the experiments, puromycin was left out. For proliferation assays (data in table 12 and 14), Ba/F3 cells were seeded into 96-well plates at 5×10^3 cells/100 μL in growth media. Compounds were added by using a HP D3000 Digital Dispenser. All treatments were performed in technical triplicates. Treated cells were incubated for 72 h at 37° C. with 5% CO2. CellTiter-Glo® Luminescent Cell Viability Assay (Promega) was performed and chemoluminescence was measured by using the multilabel Plate Reader VICTOR X4. The raw data were imported into and analyzed with the Boehringer Ingelheim proprietary software MegaLab (curve fitting based on the program PRISM, GraphPad Inc.).

Ba/F3 cells HER2 WT = experiment: Ba/F3 proliferation assay HER2 WT; details: Mus musculus, BaF3; 72 h, CellTiter-Glo
Method: as §1, §2

[2] = tested on: NCI-H2170 (HER2 wild type) cells; experiment: Tumor cell proliferation assay NCI-H2170 (HER2 wild type); details: Homo sapiens, 72 h, CellTiter-Glo, read-out: GI50 NCI H-2170 HER2 wt amp.
Method: (§3) For proliferation assays, NCI-H2170 (HER2 wild type), NCI-H2170 HER2 YVMA and EGFR WT dependent A431 cells were used. NCI-H2170 HER2 YVMA or NCI-H2170 cells were seeded into 96-well plates at 750 cells/60 μL in growth media (RPMI ATCC+10% FBS, +Penicillin/Streptomycin). […] Compounds were added by using a HP D3000 Digital Dispenser one day after plating the cells. All treatments were performed in technical triplicates. Treated cells were incubated for 72 h at 37° C. with 5% CO2. CellTiter-Glo® Luminescent Cell Viability Assay (Promega) was performed and chemoluminescence was measured by using the multilabel Plate Reader VICTOR X4. The raw data were imported into and analyzed with the Boehringer Ingelheim proprietary software MegaLab (curve fitting based on the program PRISM, GraphPad Inc.).

EGFR wild type (WT) = target: T1, EGFR wild type (WT) (Homo sapiens, UniProt P00533); experiment: pEGFR assay (AlphaScreen Surefire, HEK cells); details: HEK cells expressing EGFR WT, phosphorylation at Tyr1068, 4 h
T1 construct: expressed in transfected cells; host or cells: human HEK cells (ATCC CRL-1573), retroviral transduction, puromycin selection
Method: This assay quantifies the phosphorylation of EGFR at Tyr1068 and was used to measure the inhibitory effect of compounds on the transgenic EGFR wild type (WT) protein expressed in HEK cells.
Transduced cells were selected using puromycin. p-EGFR Tyr1068 was determined using the AlphaScreen Surefire pEGF Receptor (Tyr1068) Assay (PerkinElmer, TGRERS). For the assay, HEK EGFR WT cells were seeded in MEM medium with 10% FBS. […] Subsequently, 60.000 cells/well in 60 μL were added. Cells were incubated with compounds for 4 h at 37° C. […] The mixture was incubated at a temperature of 20-25° C. with shaking (700 rpm) for 20 min. After centrifugation, 4 μL of the lysate were transferred to Proxiplates. […] Plates were shaken for 1 min (1400 rpm) and incubated for 2 h at a temperature of 20-25° C. in the dark.
This cellular phospho-EGFR (pEGFR) compound dose-response assay quantifies the phosphorylation of EGFR at Tyr1068 in HEK cells expressing EGFR WT. The results of the assay are provided as IC50 values.

[3] = tested on: EGFR WT dependent A431 cells; experiment: Tumor cell proliferation assay A431 (EGFR WT dependent); details: Homo sapiens, A-431; 72 h, CellTiter-Glo; read-out: GI50 A431 EGFR wt amp.
Method: as §3

HER2 YVMA = target: T2, HER2 YVMA (Homo sapiens, UniProt P04626, INS775YVMA); experiment: pHER2 (ERBB2) YVMA assay (AlphaScreen Surefire, HEK cells); details: HEK cells expressing HER2 YVMA, phosphorylation at Tyr1221/1222, 4 h
T2 construct: expressed in transfected cells; host or cells: human HEK cells, retroviral transduction, puromycin selection, doxycycline-inducible expression
Method: For the assay, HEK HER2 YVMA cells were seeded in MEM medium with 10% FBS. 4 hours prior to compound addition, HER2 YVMA expression was induced using 1 μg/ml Doxycycline. […] Subsequently, 60.000 cells/well in 60 μL were added. Cells were incubated with compounds for 4 h at 37° C. […] The mixture was incubated at a temperature of 20-25° C. with shaking (700 rpm) for 20 min. After centrifugation, 4 μL of the lysate were transferred to Proxiplates. […] Plates were shaken for 1 min (1400 rpm) and incubated for 2 h at a temperature of 20-25° C. in the dark.
The results of the assay are provided as IC50 values.

[4] = tested on: NCI-H2170 HER2 YVMA cells; experiment: Tumor cell proliferation assay NCI-H2170 HER2 YVMA; details: Homo sapiens, 72 h, CellTiter-Glo, read-out: GI50 NCI H-2170 HER2 YVMA
Source text: HER2 YVMA tumor cell line model generation and proliferation assays
Homology-directed genome engineering was employed to insert a 12 nucleotide sequence encoding YVMA into Exon 20 of the genomic HER2 locus in NCI-H2170 cells. […] The DNA template containing the HER2 exon 20 YVMA insertion variant was obtained from GenScript. PCR followed by Sanger sequencing was used to confirm the presence of the 12-nucleotide insertion in HER2 Exon 20 resulting in the YVMA amino acid duplication.
as §3

Ba/F3 cells EGFR WT = experiment: Ba/F3 proliferation assay EGFR WT (EGF dependent); details: Mus musculus, BaF3, EGF instead of IL-3, 72 h, CellTiter-Glo, read-out: GI50 BAF3 EGF dep.
Method: as §1, §2

T1 sequence (P00533 25-1210): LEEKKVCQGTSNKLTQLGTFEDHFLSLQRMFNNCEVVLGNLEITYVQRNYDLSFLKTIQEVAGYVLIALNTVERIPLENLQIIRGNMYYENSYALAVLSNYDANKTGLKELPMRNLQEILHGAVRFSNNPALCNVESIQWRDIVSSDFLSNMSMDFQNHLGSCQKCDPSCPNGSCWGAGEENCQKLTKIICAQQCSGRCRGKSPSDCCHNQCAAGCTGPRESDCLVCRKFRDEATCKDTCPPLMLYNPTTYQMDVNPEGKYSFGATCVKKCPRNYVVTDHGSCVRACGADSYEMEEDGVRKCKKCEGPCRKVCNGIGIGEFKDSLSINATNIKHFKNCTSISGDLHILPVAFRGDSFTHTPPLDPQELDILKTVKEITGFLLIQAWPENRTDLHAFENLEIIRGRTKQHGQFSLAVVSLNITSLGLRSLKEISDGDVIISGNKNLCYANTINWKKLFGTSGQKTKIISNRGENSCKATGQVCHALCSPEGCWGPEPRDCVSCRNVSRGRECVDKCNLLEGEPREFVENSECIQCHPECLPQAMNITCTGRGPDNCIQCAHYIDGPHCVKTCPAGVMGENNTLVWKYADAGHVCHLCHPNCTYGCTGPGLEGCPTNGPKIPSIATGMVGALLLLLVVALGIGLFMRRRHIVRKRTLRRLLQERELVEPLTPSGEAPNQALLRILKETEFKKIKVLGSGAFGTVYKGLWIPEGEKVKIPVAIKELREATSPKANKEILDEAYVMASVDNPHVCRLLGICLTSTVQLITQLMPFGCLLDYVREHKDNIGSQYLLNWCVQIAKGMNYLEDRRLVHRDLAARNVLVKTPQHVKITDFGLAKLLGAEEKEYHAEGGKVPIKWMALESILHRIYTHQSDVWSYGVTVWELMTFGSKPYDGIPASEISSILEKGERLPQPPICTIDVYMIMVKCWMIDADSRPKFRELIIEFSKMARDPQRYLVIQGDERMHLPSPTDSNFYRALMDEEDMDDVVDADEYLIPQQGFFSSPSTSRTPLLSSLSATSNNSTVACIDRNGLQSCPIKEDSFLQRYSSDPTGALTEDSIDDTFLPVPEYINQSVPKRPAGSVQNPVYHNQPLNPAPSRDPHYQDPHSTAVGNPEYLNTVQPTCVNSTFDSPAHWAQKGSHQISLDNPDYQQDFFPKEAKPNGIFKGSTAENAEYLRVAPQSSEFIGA
T2 sequence (P04626 with tags, fused parts or gaps INS775YVMA): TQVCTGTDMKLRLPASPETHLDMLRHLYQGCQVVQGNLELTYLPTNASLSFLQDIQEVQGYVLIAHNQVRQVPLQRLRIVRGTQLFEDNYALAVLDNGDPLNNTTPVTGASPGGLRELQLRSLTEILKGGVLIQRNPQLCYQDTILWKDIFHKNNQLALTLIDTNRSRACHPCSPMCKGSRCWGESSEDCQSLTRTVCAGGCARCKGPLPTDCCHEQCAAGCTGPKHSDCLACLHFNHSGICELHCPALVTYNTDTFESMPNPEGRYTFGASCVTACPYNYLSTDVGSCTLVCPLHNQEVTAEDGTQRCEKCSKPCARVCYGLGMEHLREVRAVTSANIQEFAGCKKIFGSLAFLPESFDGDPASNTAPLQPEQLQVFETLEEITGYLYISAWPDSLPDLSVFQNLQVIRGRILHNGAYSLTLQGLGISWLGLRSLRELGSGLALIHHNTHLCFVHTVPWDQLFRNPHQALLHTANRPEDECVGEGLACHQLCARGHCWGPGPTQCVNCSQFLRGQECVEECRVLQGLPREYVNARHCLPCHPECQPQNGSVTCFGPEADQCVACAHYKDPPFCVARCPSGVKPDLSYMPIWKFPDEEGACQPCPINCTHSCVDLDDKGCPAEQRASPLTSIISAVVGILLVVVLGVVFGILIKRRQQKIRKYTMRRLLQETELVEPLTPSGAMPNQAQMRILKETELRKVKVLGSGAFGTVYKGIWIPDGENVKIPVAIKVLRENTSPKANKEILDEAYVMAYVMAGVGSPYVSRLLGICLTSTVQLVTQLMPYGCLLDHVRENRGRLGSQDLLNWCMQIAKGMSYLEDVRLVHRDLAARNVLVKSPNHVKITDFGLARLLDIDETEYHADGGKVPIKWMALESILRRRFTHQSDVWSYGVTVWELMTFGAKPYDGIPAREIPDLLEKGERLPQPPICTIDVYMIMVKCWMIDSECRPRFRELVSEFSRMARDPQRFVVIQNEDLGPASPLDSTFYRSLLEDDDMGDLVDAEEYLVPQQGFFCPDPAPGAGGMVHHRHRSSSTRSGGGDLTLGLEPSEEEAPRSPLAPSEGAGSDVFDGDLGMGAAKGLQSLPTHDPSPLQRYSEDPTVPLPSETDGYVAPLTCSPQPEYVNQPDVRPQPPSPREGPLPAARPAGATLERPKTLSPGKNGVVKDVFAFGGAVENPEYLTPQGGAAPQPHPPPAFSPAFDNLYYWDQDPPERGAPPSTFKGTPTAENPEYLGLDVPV

- GI50 [1]: 20 nM
- GI50 (Ba/F3 cells HER2 WT): 1 nM
- IC50 (EGFR wild type (WT)): 232 nM
- GI50 [3]: 2880 nM
- IC50 (HER2 YVMA): 15 nM
- GI50 (Ba/F3 cells EGFR WT): 572 nM
Structure (SMILES): C=CC(=O)N1CCN(c2ncc3ncnc(Nc4ccc(Oc5ccc6c(c5)ncn6C)c(Br)c4)c3n2)CC1 [Compound I-5]
- GI50 [2]: 16 nM
- GI50 [4]: 76 nM
